Source: article PMC4774972, “Activity and Predicted Nephrotoxicity of Synthetic Antibiotics Based on Polymyxin B” (Journal of Medicinal Chemistry, 2016)
≈ marks a conversion by molar mass, not a printed value. Bridge positions count the residues as written; N and C are the ends. Square brackets hold non-standard residues; d marks the D form. Peptide text beside a SMILES is read from it. * marks the point of attachment. Phe(4-NH2) = Nc1ccc(C[C@H](N)C(=O)O)cc1; hSer = N[C@@H](CCO)C(=O)O; Octanoyl = CCCCCCCC(=O)*; Dab = NCC[C@H](N)C(=O)O

Assays:
A. baumannii ATCC 19606 [1] = conditions: MIC A. baumannii ATCC 19606 (µg/mL)
[2] = system: A. baumannii CI Ptyela 100734512:2, PmxR; conditions: MIC A. baumannii CI Ptyela 100734512:2, PmxR (µg/mL)
E. coli ATCC 25922 = conditions: MIC E. coli ATCC 25922 (µg/mL)
K. pneumoniae ATCC 13883 [3] = conditions: MIC K. pneumoniae ATCC 13883 (µg/mL)
[4] = system: K. pneumoniae ATCC 700603, MDR; conditions: MIC K. pneumoniae ATCC 700603, MDR(µg/mL)
[5] = system: K. pneumoniae ATTC BAA-2146, NDM-1 pos; conditions: MIC K. pneumoniae ATTC BAA-2146, NDM-1 pos (µg/mL)
[6] = system: K. pneumoniae CI 138-16357-20362, PmxR; conditions: MIC K. pneumoniae CI 138-16357-20362, PmxR (µg/mL)
[7] = system: K. pneumoniae CI Koprana 100650661:1, PmxR; conditions: MIC K. pneumoniae CI Koprana 100650661:1, PmxR (µg/mL)
P. aeruginosa ATCC 27853 [8] = conditions: MIC P. aeruginosa ATCC 27853 (µg/mL)
[9] = system: P. aeruginosa FADDI-PA070, PmxR; conditions: MIC P. aeruginosa FADDI-PA070, PmxR (µg/mL)
[10] = system: P. aeruginosa PA9704, PmxR; conditions: MIC P. aeruginosa PA9704, PmxR (µg/mL)
[11] = system: S. aureus ATCC 25923, MSSA; conditions: MIC S. aureus ATCC 25923, MSSA (µg/mL)
HepG2 = conditions: CC50 HepG2 (µM)
[12] = system: K. pneumoniae ATTC BAA-2146, NDM-1 pos; type: cell-based, Klebsiella pneumoniae; conditions: MHB, 5 × 10^5 CFU/mL, read visually after 18 h at 37 °C
Protocol: (§1) Bacteria were either obtained from American Type Culture Collection (ATCC; Manassas, VA, USA) or independent academic clinical isolate collections, as listed in Table S2. Bacteria were cultured in nutrient broth (NB; Bacto Laboratories, catalog no. 234000) or Muller Hinton broth (MHB; Bacto Laboratories, catalog no. 211443) at 37 °C overnight with shaking (∼180 rpm). A sample of each culture was then diluted 50-fold in fresh MHB and incubated at 37 °C for 1.5–3 h with shaking (∼180 rpm). Compound stock solutions were prepared as 0.64 or 2.56 mg/mL in water. The compounds, at twice the final desired concentration, were serially diluted 2-fold across the wells of 96-well plates (Polystyrene, Corning, catalogue No. 3370). Mid log phase bacterial cultures (after 1.5–3 h incubation) were diluted to a final concentration of 5 × 10^5 colony forming units (CFU)/mL, and 50 μL was added to each well giving a final compound concentration range of 32 μg/mL to 0.015 μg/mL (128–0.06 μg/mL for colistin and polymyxin B against the polymyxin resistant clinical isolates). MICs were determined visually after 18 h of incubation at 37 °C, with the MIC defined as the lowest compound concentration at which no bacterial growth was visible.
(§2) Table S2. Bacterial strains used for Minimum Inhibitory Concentration (MIC) […]
(§3) Organism Strain Strain description Strain Source
(§4) Escherichia coli ATCC 25922 FDA strain Seattle 1946 ATCC
(§5) Klebsiella pneumoniae ATCC 13883 Control strain ATCC
(§6) Klebsiella pneumoniae ATCC 700603 Multi-drug resistant ATCC
(§7) Klebsiella pneumoniae BAA-2146 Metallo-beta-lactamase- ATCC
(§8) Acinetobacter baumannii ATCC 19606 Type strain ATCC
(§9) Pseudomonas aeruginosa ATCC 27853 Type strain ATCC
(§10) Pseudomonas aeruginosa FADDI-PA070 Clinical isolate, Nation and Li labs, polymyxin resistant Monash University
(§11) Clinical isolate, Wang Hengzhuang, Pseudomonas aeruginosa PA9704 polymyxin resistant University Hospital of […]
(§12) Ptyela Clinical isolate, Ilias Karaiskos and Acinetobacter baumannii Carbapenem & Helen Giamarellou
(§13) Clinical isolate, Medicine, Hygeia
(§14) Klebsiella pneumoniae Koprana Carbapenem, & General Hospital, […]
(§15) Clinical isolate, (Instituto Dante […]
(§16) polymyxin resistant Cardiologia, São […]

[13] = system: K. pneumoniae CI 138-16357-20362, PmxR; assay: microbe, parasite or virus in culture; type: cell-based, Klebsiella pneumoniae; conditions: carbapenem & polymyxin resistant clinical isolate; MHB, 5 × 10^5 CFU/mL, 18 h at 37 °C
[14] = system: K. pneumoniae CI Koprana 100650661:1, PmxR; assay: microbe, parasite or virus in culture; type: cell-based, Klebsiella pneumoniae; conditions: carbapenem & polymyxin resistant clinical isolate; MHB, 5 × 10^5 CFU/mL, 18 h at 37 °C
[15] = system: panel of predominantly G-ve bacteria
[16] = system: K. pneumoniae ATCC 700603, MDR; type: cell-based, Klebsiella pneumoniae; conditions: MHB, 5 × 10^5 CFU/mL, read visually after 18 h at 37 °C
Protocol: as §1, §2, §3, §4, §5, §6, §7, §8, §9, §10, §11, §12, §13, §14, §15, §16

A. baumannii ATCC 19606 [17] = type: cell-based, Acinetobacter baumannii; conditions: MHB, 5 × 10^5 CFU/mL, read visually after 18 h at 37 °C
Protocol: as §1, §2, §3, §4, §5, §6, §7, §8, §9, §10, §11, §12, §13, §14, §15, §16

P. aeruginosa ATCC 27853 [18] = assay: microbe, parasite or virus in culture; type: cell-based, Pseudomonas aeruginosa; conditions: MHB, 5 × 10^5 CFU/mL, read visually after 18 h at 37 °C
Protocol: as §1, §2, §3, §4, §5, §6, §7, §8, §9, §10, §11, §12, §13, §14, §15, §16

[19] = system: P. aeruginosa FADDI-PA070, PmxR; type: cell-based, Pseudomonas aeruginosa; conditions: polymyxin resistant clinical isolate; MHB, 5 × 10^5 CFU/mL, 18 h at 37 °C
Protocol: as §1, §2, §3, §4, §5, §6, §7, §8, §9, §10, §11, §12, §13, §14, §15, §16

[20] = system: P. aeruginosa PA9704, PmxR; type: cell-based, Pseudomonas aeruginosa; conditions: polymyxin resistant clinical isolate; MHB, 5 × 10^5 CFU/mL, 18 h at 37 °C
Protocol: as §1, §2, §3, §4, §5, §6, §7, §8, §9, §10, §11, §12, §13, §14, §15, §16

[21] = system: A. baumannii CI Ptyela 100734512:2, PmxR; assay: microbe, parasite or virus in culture; type: cell-based, Acinetobacter baumannii; conditions: carbapenem & polymyxin resistant clinical isolate; MHB, 5 × 10^5 CFU/mL, 18 h at 37 °C
K. pneumoniae ATCC 13883 [22] = assay: microbe, parasite or virus in culture; type: cell-based, Klebsiella pneumoniae; conditions: MHB, 5 × 10^5 CFU/mL, read visually after 18 h at 37 °C
[23] = system: S. aureus ATCC 25923, MSSA; assay: microbe, parasite or virus in culture; type: cell-based, Staphylococcus aureus; conditions: MHB, 5 × 10^5 CFU/mL, read visually after 18 h at 37 °C
HEK293 cells = assay: Cytotoxicity assay (resazurin assay); type: cell-based, human; conditions: 4000 cells/well, 24 h incubation with compound, fluorescence 560/590
HepG2 cells = assay: Cytotoxicity assay (resazurin assay); type: cell-based, human; conditions: 4000 cells/well, 24 h incubation with compound, fluorescence 560/590
[24] = system: primary human renal proximal tubule epithelial (hPT) cells; assay: Nephrotoxicity assay, LDH release; type: cell-based; conditions: primary human kidney cells
From the text: (§17) Primary human renal proximal tubule epithelial (hPT) cells were isolated and used for in vitro prediction of drug-induced nephrotoxicity[63],[64],[69] by measuring the release of metabolism enzymes, LDH and GGT, as previously described.[70]

[25] = system: primary human renal proximal tubule epithelial (hPT) cells; assay: Nephrotoxicity assay, GGT release; type: cell-based; conditions: primary human kidney cells
From the text: as §17

| SMILES | MIC [2] [µg/mL] | MIC (K. pneumoniae ATCC 13883 [3]) [µg/mL] | MIC [6] [µg/mL] | MIC [7] [µg/mL] | MIC [9] [µg/mL] | MIC [10] [µg/mL] | MIC [11] [µg/mL] | CC50 (HepG2) [µM] | MIC K. pneumoniae ATTC BAA-2146, NDM-1 pos [12] [µg/mL] | MIC K. pneumoniae CI 138-16357-20362, PmxR [13] [µg/mL] | MIC K. pneumoniae CI Koprana 100650661:1, PmxR [14] [µg/mL] | further results |
| --- | --- | --- | --- | --- | --- | --- | --- | --- | --- | --- | --- | --- |
| CCCCCCCC(=O)N[C@@H](CCN)C(=O)N[C@H](C(=O)N[C@@H](CCN)C(=O)N[C@H]1CCNC(=O)[C@H]([C@@H](C)O)NC(=O)[C@H](CCN)NC(=O)[C@H](CCN)NC(=O)[C@H](CC(C)C)NC(=O)[C@@H](Cc2ccccc2)NC(=O)[C@H](Cc2ccc(N)cc2)NC1=O)[C@@H](C)O [Compound 34] (Octanoyl-[Dab]T[Dab][Dab][Phe(4-NH2)][dF]L[Dab][Dab]T; lactam 4-C) | > 32 | > 32 | > 32 | > 32 | > 32 | > 32 | > 32 | > 300 | >32 | >32 | >32 | MIC (A. baumannii ATCC 19606 [1]): > 32 µg/mL; MIC (E. coli ATCC 25922): > 32 µg/mL; MIC [4]: > 32 µg/mL; MIC [5]: > 32 µg/mL; MIC (P. aeruginosa ATCC 27853 [8]): > 32 µg/mL |
| CCCCCCCC(=O)N[C@@H](CCN)C(=O)N[C@H](C(=O)N[C@@H](CCN)C(=O)N[C@H]1CCNC(=O)[C@H]([C@@H](C)O)NC(=O)[C@H](CCN)NC(=O)[C@H](CCO)NC(=O)[C@H](CC(C)C)NC(=O)[C@@H](Cc2ccccc2)NC(=O)[C@H](CCN)NC1=O)[C@@H](C)O [Compound 24] (Octanoyl-[Dab]T[Dab][Dab][Dab][dF]L[hSer][Dab]T; lactam 4-C) | > 32 | > 32 | > 32 | > 32 | > 32 | > 32 | > 32 | > 300 | – | >32 | >32 | MIC for most strains [15]: 1 to 8 µg/mL |
| CC[C@H](C)CCCCC(=O)N[C@@H](CCN)C(=O)N[C@H](C(=O)N[C@@H](CCN)C(=O)N[C@H]1CCNC(=O)[C@H]([C@@H](C)O)NC(=O)[C@H](CCN)NC(=O)[C@H](CCN)NC(=O)[C@H](CC(C)C)NC(=O)[C@@H](Cc2ccccc2)NC(=O)[C@H](CCN)NC1=O)[C@@H](C)O [Polymyxin B 1, polymyxin B] | – | – | – | – | – | – | – | – | 0.25 (≈ 0.208 µM) | 64 (≈ 53.2 µM) | 64 (≈ 53.2 µM) | MIC K. pneumoniae ATCC 700603, MDR [16]: 0.5 µg/mL (≈ 0.415 µM); MIC A. baumannii ATCC 19606 (A. baumannii ATCC 19606 [17]): 0.25 µg/mL (≈ 0.208 µM); MIC P. aeruginosa ATCC 27853 (P. aeruginosa ATCC 27853 [18]): 0.5 µg/mL (≈ 0.415 µM); MIC P. aeruginosa FADDI-PA070, PmxR [19]: 32 µg/mL (≈ 26.6 µM); MIC P. aeruginosa PA9704, PmxR [20]: 128 µg/mL (≈ 106 µM); MIC A. baumannii CI Ptyela 100734512:2, PmxR [21]: 64 µg/mL (≈ 53.2 µM); MIC K. pneumoniae ATCC 13883 (K. pneumoniae ATCC 13883 [22]): 1 µg/mL (≈ 0.831 µM); MIC S. aureus ATCC 25923, MSSA [23]: >64 µg/mL; HEK293 CC50 (HEK293 cells): >300 µM; HepG2 - CC50 (HepG2 cells): >300 µM; LDH release CC50 [24]: 23 µg/mL; GGT release CC50 [25]: 177 µg/mL |
